From BigSolDB 2.1

CC(C)C(=O)Nc1ccc([N+](=O)[O-])c(C(F)(F)F)c1
solubility (mole fraction)
Conditions	278.15 K	283.15 K	288.15 K	293.15 K	298.15 K	303.15 K	308.15 K	313.15 K	318.15 K	323.15 K
in 1,4-dioxane	–	0.108	0.127	0.151	0.177	0.203	0.231	0.262	0.299	0.348
in THF	0.259	0.276	0.297	0.321	0.348	0.376	0.405	0.436	0.469	0.502
in acetone	0.186	0.201	0.228	0.258	0.291	0.327	0.366	0.407	0.45	0.49
in acetonitrile	0.0566	0.0711	0.0902	0.119	0.157	0.197	0.246	0.296	0.355	0.427
in ethanol	0.0503	0.0556	0.063	0.0709	0.0797	0.0908	0.102	0.117	0.133	0.154
in ethyl acetate	0.161	0.178	0.191	0.206	0.227	0.246	0.269	0.29	0.321	0.351
in isobutanol	0.0307	0.0381	0.0487	0.0632	0.0776	0.0965	0.118	0.141	0.171	0.207
in isopropanol	0.0539	0.0609	0.0692	0.0799	0.0918	0.105	0.121	0.139	0.161	0.182
in methanol	0.0401	0.047	0.0555	0.0641	0.0757	0.0878	0.103	0.12	0.142	0.166
in methyl acetate	0.141	0.157	0.179	0.208	0.24	0.275	0.312	0.35	0.396	0.447
in n-butanol	0.049	0.0549	0.0622	0.0709	0.0797	0.0904	0.103	0.117	0.135	0.156
in n-propanol	0.049	0.0547	0.0624	0.0698	0.0784	0.0889	0.101	0.115	0.132	0.15
